According to PubChem BioAssay (NCI):
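All cell lines were grown in 96-well plates and treated with compound for 48 hours. Here, GI50 denotes the concentration required for 50% inhibition of growth. TGI denotes the concentration required for complete inhibition of growth.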

Legend:
Assay in all cases: DTP human tumour cell line panel, 48 h
SW-620 colon = test system: SW-620 colon
UACC-257 melanoma = test system: UACC-257 melanoma
RXF 393 renal = test system: RXF 393 renal
OVCAR-4 ovarian = test system: OVCAR-4 ovarian
OVCAR-8 ovarian = test system: OVCAR-8 ovarian
SK-MEL-28 melanoma = test system: SK-MEL-28 melanoma
UACC-62 melanoma = test system: UACC-62 melanoma
DU-145 prostate = test system: DU-145 prostate

SMILES | GI50 (SW-620 colon) [µM] | TGI (SW-620 colon) [µM] | GI50 (UACC-257 melanoma) [µM] | TGI (UACC-257 melanoma) [µM] | GI50 (RXF 393 renal) [µM] | TGI (RXF 393 renal) [µM] | GI50 (OVCAR-4 ovarian) [µM] | TGI (OVCAR-4 ovarian) [µM] | GI50 (OVCAR-8 ovarian) [µM] | TGI (OVCAR-8 ovarian) [µM] | GI50 (SK-MEL-28 melanoma) [µM] | TGI (SK-MEL-28 melanoma) [µM] | GI50 (UACC-62 melanoma) [µM] | TGI (UACC-62 melanoma) [µM] | GI50 (DU-145 prostate) [µM] | TGI (DU-145 prostate) [µM]
O=c1[nH]nc(-c2ccccc2)c2c(-c3ccccc3)onc12 | 0.319 | > 100 | 6.7 | > 100 | 1.19 | > 37.9 | 2.4 | > 100 | 0.812 | > 100 | 0.793 | > 100 | 0.43 | > 100 | 1.79 | 27.2
Cc1cc(Cl)ccc1Nc1nc(C(F)(F)F)ccc1C(=O)Nc1cccc(C(F)(F)F)c1 | 4.23 | 16.6 | 3.2 | 11.6 | 3.58 | 27.5 | 3.07 | 11.3 | 4.32 | 22.7 | 4.79 | 16.6 | 4 | 14.4 | 3.17 | 15.6
CCc1nc(N)nc(N)c1C#CC(C)c1cc(-c2ccnc(C)c2)c2oc(C)nc2c1 (configuration not stated) | < 0.01 | 13.2 |  | 13.2 | 0.0395 | 2.71 | 4.54 | 26.4 | < 0.01 | 47.1 | 0.106 | 14.3 | < 0.01 | 3.23 | < 0.01 | 7.9
C=C(C)C(=O)O[C@H]1CC2=CC(CC(C)=C[C@H]3OC(=O)C(=C)C13)OC2=O (some centres not stated) |  | 36 |  | 96.3 |  |  |  | > 100 |  | > 100 |  | 31.2 |  | 38.8 |  | 30.8
Cc1ccc(-c2c3c(N)c4c(nc3nc3c2c(C)nn3-c2ccccc2)CCC4)cc1 | 2.6 | 9.57 | 14.1 | 28.8 | 1.58 | 3.25 | 2.98 | 11.9 | 2.32 | 5.89 | 4.44 | 9.69 | 18.6 | 35.7 | 2.21 | 4.68
Cc1ccccc1NC(=O)c1cc2ccccc2cc1O | 3.96 | > 100 | 3.52 | 16.2 | 2.78 | 7.23 | 3.44 | > 100 | 3.46 | 59.3 | 5.09 | > 100 | 3.48 | > 100 | 4.03 | > 100
COc1ccc2c(c1)C=C1CSCC3=Cc4cc(OC)ccc4OC13O2 | 0.373 | > 100 | > 100 | > 100 | 0.216 | 0.645 | 1.54 | > 100 | 0.522 | > 100 | > 28.2 | > 100 | 0.783 | > 100 | 0.402 | > 100
CC(C)=CCc1cc(C2COc3cc4c(c(O)c3C2=O)C=CC(C)(C)O4)c(O)cc1O (configuration not stated) |  | 57.3 |  | 27.4 |  | 20.6 |  | 24.2 |  | 51.2 |  | 50.4 |  | 32.9 |  | 27.9
c1ccc(/C(=N\Nc2ccc3ccccc3n2)c2ccccn2)cc1 | 0.699 | 15.3 | 0.33 | 3.48 |  |  | 0.418 | > 100 | 0.456 | 17.4 | 2.66 | 39 | 0.549 | 7.41 | 0.881 | 16.8
CCc1c2c(nc3ccc(OCc4ccc(B5OC(C)(C)C(C)(C)O5)cc4)cc13)-c1cc3c(c(=O)n1C2)COC(=O)[C@]3(O)CC | 0.0258 | > 100 | 0.0477 | 1.26 | 0.027 | 0.185 | 0.192 | > 100 | 0.0296 | > 100 | 0.604 | > 100 | < 0.01 | 0.186 | 0.0223 | > 49.8
O=C1COCCN1c1ccc(NCc2cn(C(=O)c3ccc(Cl)cc3)c3ccccc23)cc1 | 2.23 | > 100 | 0.276 | 1.7 | 3.09 | 18.3 | 0.494 | 18.8 | 5.04 | > 100 | 17.8 | 80.9 | 0.396 | 3.37 | 8.76 | > 100
O=C1NC(SCc2ccc(F)cc2)=N/C1=C/c1cccc(OCc2ccc(Cl)cc2)c1 | 20 | > 100 | > 100 | > 100 | 9.22 | 48.9 | 2.07 | 4.85 | 18.8 | > 100 | > 100 | > 100 | > 100 | > 100 | > 100 | > 100
CCC(=O)c1c(C(F)(F)F)n([O-])c2ccccc2[n+]1=O | 2.65 | 17.4 | 10.8 | 35.3 | 1.67 | 10.2 | 5.65 | 31.2 | 1.77 | > 32 | 8.84 | 44.6 | 1.65 | 4.64 | 1.59 | 3.27
CN(C)CC1=Nc2cccc3cccc(c23)N1 |  | > 100 |  | 31 |  | 31.9 |  | 26.6 |  | > 100 |  | 49.1 |  | 29.6 |  | 30.9
Cn1c2ccccc2c2[nH]c3ccccc3c(=O)c21 |  | > 100 |  | > 100 |  | > 100 |  |  |  | > 100 |  | > 100 |  | > 100 |  | > 100
COc1ccc(OC)c(/C=N/N=C2\C(=O)Nc3c(Cl)cc(Cl)cc32)c1 |  | > 100 |  | > 100 |  | > 100 |  | > 100 |  | > 100 |  | > 100 |  | > 100 |  | 
COC1C(O)C(C)OC(O[C@@H]2C[C@H]3CC[C@@H]4[C@H](CC[C@]5(C)[C@@H](C6=CC(=O)OC6)CC[C@]45O)[C@@]3(C)[C@H](O)C2)C1O (some centres not stated) |  |  |  | 1.07 |  | 0.0363 |  | 0.0379 |  | 0.268 |  | 0.819 |  | 0.647 |  | 0.0812
